Measured values published in publication PMC5786306, “An AKAP-Lbc-RhoA interaction inhibitor promotes the translocation of aquaporin-2 to the plasma membrane of renal collecting duct principal cells” (PLoS ONE, 2018).

Experiments:
Assay type in all cases: cell-based, rat
[1] = test system: Cdc42 activity in IMCD cells; assay: PAK-1-PBD pull down, Cdc42; conditions: 30 μM, 1 h
Procedure: (§1) The (p21) binding domain (PBD) of p21 activated kinase 1 protein (PAK-1) spans amino acids 67–150 of PAK-1 and binds specifically to the GTP-bound Rac-1 and Cdc42. The PBD was prepared as described and used for selective precipitation of the activated GTPases from IMCD cells. The PBD was expressed as a GST-fusion protein in DH5α E-coli cells, the cells were lysed using a French press, and the fusion protein was purified with Glutathione Sepharose 4 Fast Flow GST-tagged protein purification resin kit according to the manufacturer’s instructions (GE Healthcare; #17-5132-01). The PAK-1-PBD pull down was carried out with 400–500 μg protein from IMCD cell lysates. Proteins were eluted from the beads by boiling with Laemmli sample buffer, and analyzed by Western blotting. The membranes were first probed for Cdc42, and the GTP-bound active fraction of the protein was related to total Cdc42, and to the loading control GAPDH. The membranes were re-probed for Rac-1 accordingly to determine the active GTP-bound Rac-1 fraction.
(§2) Fig 10 Scaff10-8 inhibits activation of RhoA in primary IMCD cells. IMCD cells were incubated with Scaff10-8 (30 μM, 1 h). DMSO (1%), the solvent of Scaff10-8, served as a control. […] Signals were semiquantitatively analyzed by densitometry. […] Statistically significant differences were determined using one-way ANOVA with posthoc Bonferroni. […]

[2] = test system: AQP2 insertion into the plasma membrane of IMCD cells; assay: Biotinylation of cell surface proteins; conditions: Scaff10-8 30 μM, 1 or 24 h, forskolin 30 μM, 30 min
Procedure: The assay was performed according to Bogum et al.. IMCD cells were treated with Scaff10-8 at a concentration of 30 μM for 1 or 24 h (0.3% DMSO final concentration). DMSO (0.3%) was used as a control for the 24 h of incubation. Cells were stimulated with forskolin (30 min, 30 μM). Cells were washed twice with ice-cold PBS and incubated with biotinylation buffer (500 μg Biotin per well; 10 mM triethanolamine; 150 mM NaCl; 1 mM MgCl2; 0.1 mM CaCl2; pH 8.0) for 60 min at 4°C. After two washing steps with biotinylation buffer, cells were incubated for 10 min with quenching buffer (50 mM NH4Cl in PBS) at 4°C. Lysates were prepared using biotinylation lysis buffer 1 (SLB; 0.5% Triton X-100; 0.2% BSA; Complete mini EDTA-free). Lysates were sonicated and incubated for 20 min at 37°C. Cell debris was removed by centrifugation (30 min, 15,000x g, 4°C). Lysates were incubated with 80 μl streptavidin agarose beads at 4°C overnight. Beads were washed three times with biotinylation lysis buffer 1 and 2 (SLB; 0.5% Triton X-100; Complete mini EDTA-free). Proteins were eluted using sample buffer and analyzed by Western blotting.
(A) IMCD cells were treated with either compound (30 μM) or DMSO for 1 or 24 h. Membrane proteins were biotinylated followed by precipitation with streptavidin agarose beads. […] (B) Signals from A were quantified by densitometric analysis. […]

[3] = test system: Rac1 activity in IMCD cells; assay: PAK-1-PBD pull down, Rac1; conditions: 30 μM, 1 h
Procedure: as §1, §2

What does the source list for `COc1ccc(-c2coc3cc4oc(=O)c(CCC(=O)O)c(C)c4cc23)cc1` [Scaff10-8, 3-[3-(4-Methoxyphenyl)-5-methyl-7-oxo-furo[3,2-g]chromen-6-yl] propanoic acid]?
activity of Cdc42 [1]: did not influence activities; insertion of AQP2 into the plasma membrane [2]: does not promote the insertion of AQP2; activity of Rac1 [3]: did not influence activities
